Source: ChEMBL document CHEMBL1145073, “DNA binding ligands targeting drug-resistant bacteria: structure, activity, and pharmacology” (J Med Chem, 2003)
≈ marks a conversion by molar mass, not a printed value.

Tested on: not listed separately
Assay: In vitro antimicrobial activity against penicillin-intermediate Streptococcus pneumoniae 49619
Type: functional
Details: not given
Work on `Cn1cc(NC(=O)c2cc(NC(=O)c3cc(NC(=O)c4sccc4Cl)cn3C)cn2C)cc1C(=O)NCCN1CCCC1` yielded an MIC of 2 µg/mL (≈ 3.2 µM).
With `Cn1cc(NC(=O)c2cc(NC(=O)c3cc(-c4nccs4)cn3C)cn2C)cc1C(=O)NCCN1CCOCC1` the MIC was greater than 32 µg/mL.
`Cn1cc(NC(=O)c2cc(NC(=O)c3cc(NC(=O)c4sccc4Cl)cn3C)cn2C)cc1C(=O)NCCN1CCC(F)(F)CC1` showed an MIC of 0.5 µg/mL (≈ 0.741 µM).
`Cn1cc(NC(=O)c2cc(NC(=O)c3cc(NC(=O)c4sccc4Cl)cn3C)cn2C)cc1C(=O)NCCCN1CCOCC1` gave an MIC of 2 µg/mL (≈ 3.05 µM).
Compound `CN(C)CCCNC(=O)c1cc(NC(=O)c2cc(NC(=O)c3cc(NC(=O)c4cc5ccccc5cn4)cn3C)cn2C)cn1C` has an MIC of 1 µg/mL (≈ 1.6 µM).
`Cn1cc(NC(=O)c2cc(NC(=O)c3cc(NC(=O)c4cc5ccccc5cn4)cn3C)cn2C)cc1C(=O)NCCCN1CCCCC1` gave an MIC of 0.25 µg/mL (≈ 0.377 µM).
For `Cn1cc(NC(=O)c2cc(NC(=O)c3cc(NC(=O)c4cc5ccccc5cn4)cn3C)cn2C)cc1C(=O)NCCN1CCCCC1`, the MIC was 0.031 µg/mL (≈ 0.0477 µM).
With `CCCCc1ccc(-c2cc(C(=O)Nc3cc(C(=O)Nc4cc(C(=O)NCCN5CCOCC5)n(C)c4)n(C)c3)n(C)c2)nc1` the MIC was 2 µg/mL (≈ 3.25 µM).

Tested on: Staphylococcus aureus
Assay: In vitro antimicrobial activity against MSSA 13709
Type: functional
Details: not given
`Cn1cc(NC(=O)c2cc(NC(=O)c3cc(-c4nccs4)cn3C)cn2C)cc1C(=O)NCCN1CCOCC1` gave an MIC greater than 32 µg/mL.

Tested on: Enterococcus faecalis
Assay: In vitro antimicrobial activity against vancomycin-susceptible Enterococcus faecalis 29212
Type: functional
Details: not given
`Cn1cc(NC(=O)c2cc(NC(=O)c3cc(NC(=O)c4sccc4Cl)cn3C)cn2C)cc1C(=O)NCCN1CCCC1` gave an MIC of 16 µg/mL (≈ 25.6 µM).
`Cn1cc(NC(=O)c2cc(NC(=O)c3cc(-c4nccs4)cn3C)cn2C)cc1C(=O)NCCN1CCOCC1` gave an MIC greater than 32 µg/mL.
`Cn1cc(NC(=O)c2cc(NC(=O)c3cc(NC(=O)c4sccc4Cl)cn3C)cn2C)cc1C(=O)NCCN1CCC(F)(F)CC1` gave an MIC of 2 µg/mL (≈ 2.96 µM).
For `Cn1cc(NC(=O)c2cc(NC(=O)c3cc(NC(=O)c4sccc4Cl)cn3C)cn2C)cc1C(=O)NCCCN1CCOCC1`, the MIC was 4 µg/mL (≈ 6.11 µM).
`CN(C)CCCNC(=O)c1cc(NC(=O)c2cc(NC(=O)c3cc(NC(=O)c4cc5ccccc5cn4)cn3C)cn2C)cn1C` gave an MIC of 4 µg/mL (≈ 6.41 µM).
Work on `Cn1cc(NC(=O)c2cc(NC(=O)c3cc(NC(=O)c4cc5ccccc5cn4)cn3C)cn2C)cc1C(=O)NCCCN1CCCCC1` yielded an MIC of 4 µg/mL (≈ 6.03 µM).
`Cn1cc(NC(=O)c2cc(NC(=O)c3cc(NC(=O)c4cc5ccccc5cn4)cn3C)cn2C)cc1C(=O)NCCN1CCCCC1` showed an MIC of 0.062 µg/mL (≈ 0.0954 µM).
`CCCCc1ccc(-c2cc(C(=O)Nc3cc(C(=O)Nc4cc(C(=O)NCCN5CCOCC5)n(C)c4)n(C)c3)n(C)c2)nc1` gave an MIC of 32 µg/mL (≈ 52.1 µM).

Tested on: Candida albicans
Assay: In vitro antimicrobial activity against Candida albicans 38247
Type: functional
Details: Candida albicans; read-out: MIC
Compound `Cn1cc(NC(=O)c2cc(NC(=O)c3cc(NC(=O)c4sccc4Cl)cn3C)cn2C)cc1C(=O)NCCCN1CCOCC1` has an MIC greater than 32 µg/mL.

Tested on: Bacillus cereus
Assay: In vitro antimicrobial activity against Bacillus cereus 11778
Type: functional
Details: not given
For `Cn1cc(NC(=O)c2cc(NC(=O)c3cc(NC(=O)c4sccc4Cl)cn3C)cn2C)cc1C(=O)NCCCN1CCOCC1`, the MIC was 8 µg/mL (≈ 12.2 µM).

Target: Nucleic Acid
Assay: Apparent binding affinity against DNA (5'-ACAATTAA-3') was determined using DNase I footprinting titration method
Type: nucleic-acid assay
Details: read-out: Kd app
For `Cn1cc(NC(=O)c2cc(NC(=O)c3cc(NC(=O)c4sccc4Cl)cn3C)cn2C)cc1C(=O)NCCN1CCCC1`, the Kd was 2 nM.
`Cn1cc(NC(=O)c2cc(NC(=O)c3cc(NC(=O)c4sccc4Cl)cn3C)cn2C)cc1C(=O)NCCN1CCC(F)(F)CC1` gave a Kd of 50 nM.
`Cn1cc(NC(=O)c2cc(NC(=O)c3cc(NC(=O)c4sccc4Cl)cn3C)cn2C)cc1C(=O)NCCCN1CCOCC1` gave a Kd of 71 nM.

Tested on: Staphylococcus aureus
Assay: In vitro antimicrobial activity against methicillin resistant Staphylococcus aureus 27660
Type: functional
Details: not given
`Cn1cc(NC(=O)c2cc(NC(=O)c3cc(NC(=O)c4sccc4Cl)cn3C)cn2C)cc1C(=O)NCCN1CCCC1` gave an MIC of 8 µg/mL (≈ 12.8 µM).
Compound `Cn1cc(NC(=O)c2cc(NC(=O)c3cc(NC(=O)c4sccc4Cl)cn3C)cn2C)cc1C(=O)NCCN1CCC(F)(F)CC1` has an MIC of 2 µg/mL (≈ 2.96 µM).
In the case of `Cn1cc(NC(=O)c2cc(NC(=O)c3cc(NC(=O)c4sccc4Cl)cn3C)cn2C)cc1C(=O)NCCCN1CCOCC1`, the MIC is reported as 8 µg/mL (≈ 12.2 µM).
In the case of `CN(C)CCCNC(=O)c1cc(NC(=O)c2cc(NC(=O)c3cc(NC(=O)c4cc5ccccc5cn4)cn3C)cn2C)cn1C`, the MIC is reported as 4 µg/mL (≈ 6.41 µM).
For `Cn1cc(NC(=O)c2cc(NC(=O)c3cc(NC(=O)c4cc5ccccc5cn4)cn3C)cn2C)cc1C(=O)NCCCN1CCCCC1`, the MIC was 4 µg/mL (≈ 6.03 µM).
In the case of `Cn1cc(NC(=O)c2cc(NC(=O)c3cc(NC(=O)c4cc5ccccc5cn4)cn3C)cn2C)cc1C(=O)NCCN1CCCCC1`, the MIC is reported as 0.25 µg/mL (≈ 0.385 µM).
In the case of `CCCCc1ccc(-c2cc(C(=O)Nc3cc(C(=O)Nc4cc(C(=O)NCCN5CCOCC5)n(C)c4)n(C)c3)n(C)c2)nc1`, the MIC is reported as 8 µg/mL (≈ 13 µM).

Tested on: not listed separately
Assay: In vitro antimicrobial activity against penicillin resistant Streptococcus pneumoniae 51422
Type: functional
Details: not given
Work on `Cn1cc(NC(=O)c2cc(NC(=O)c3cc(NC(=O)c4sccc4Cl)cn3C)cn2C)cc1C(=O)NCCCN1CCOCC1` yielded an MIC of 8 µg/mL (≈ 12.2 µM).

Tested on: Enterococcus faecalis
Assay: In vitro antimicrobial activity against vancomycin-resistant Enterococcus faecalis 51559
Type: functional
Details: not given
Compound `Cn1cc(NC(=O)c2cc(NC(=O)c3cc(NC(=O)c4sccc4Cl)cn3C)cn2C)cc1C(=O)NCCCN1CCOCC1` has an MIC of 8 µg/mL (≈ 12.2 µM).
